# According to ChEMBL document CHEMBL4387726, “Design and synthesis of novel tellurodibenzoic acid compounds as kidney-type glutaminase (KGA) inhibitors” (Bioorg Med Chem Lett, 2019):
# How the values were obtained:
# [1] = Inhibition of Escherichia coli GDH using glutamate as substrate pre treated with 1 hr followed by substrate addition and measured after 1 hr
# HCT-116 = assay: Antiproliferative activity against human HCT116 cells assessed as reduction in cell viability after 5 days by EZMTT assay; format: functional, cell-based; conditions: HCT-116, 120 h
# [2] = Inhibition of human KGA assessed as reduction in glutamate formation using glutamine as substrate pretreated with 0.5 hr followed by substrate addition and measured after 4 hrs by KGA/GDH coupled assay
# [3] = Inhibition of Escherichia coli TrxR pre treated with 0.5 hr followed by DTNB addition and measured after 1 hr
# [4] = Stability of the compound in oxidative (H2O2) solution at 37 degC for 24 hrs by HPLC analysis; format: physicochemical
# [5] = Stability of the compound in nucleophilic (DTT) solution at 37 degC for 24 hrs by HPLC analysis; format: physicochemical
# [6] = Stability of the compound in nucleophilic (beta-ME) solution at 37 degC for 24 hrs by HPLC analysis; format: physicochemical
# [7] = Stability of the compound in acidic (HCOOH) solution at 37 degC for 24 hrs by HPLC analysis; format: physicochemical
# [8] = Stability of the compound in basic (NH3.H2O) solution at 37 degC for 24 hrs by HPLC analysis; format: physicochemical
# [9] = Stability of the compound in nucleophilic (lysine) solution at 37 degC for 24 hrs by HPLC analysis; format: physicochemical
Structure (SMILES),IC50 [1] [µM],EC50 (HCT-116) [µM],IC50 [2] [µM],IC50 [3] [µM],Stability [4],Stability [5],Stability [6],Stability [7],Stability [8],Stability [9]
O=C(O)c1ccccc1[Te]c1ccccc1C(=O)O,> 66.7,17.8,7,> 66.7,–,–,–,–,–,–
CNC(=O)c1cc(Br)ccc1[Te]c1ccc(Br)cc1C(=O)NC,> 66.7,> 50,> 66.7,> 66.7,–,–,–,–,–,–
COc1cccc(C(=O)O)c1[Te]c1c(OC)cccc1C(=O)O,> 66.7,> 50,> 66.7,> 66.7,–,–,–,–,–,–
COc1ccc(C(=O)O)c([Te]c2cc(OC)ccc2C(=O)O)c1,> 66.7,7.5,11.3,> 66.7,–,–,–,–,–,–
O=C(O)c1cc(Br)ccc1[Te]c1ccc(Br)cc1C(=O)O,> 66.7,5,2.4,> 66.7,Stable,Unstable,Unstable,Stable,Stable,Unstable
COC(=O)c1cc(Br)ccc1[Te]c1ccc(Br)cc1C(=O)OC,> 66.7,> 50,> 66.7,> 66.7,–,–,–,–,–,–
O=C(Nc1ccccc1)c1cc(Br)ccc1[Te]c1ccc(Br)cc1C(=O)Nc1ccccc1,> 66.7,> 50,> 66.7,> 66.7,–,–,–,–,–,–
CCNC(=O)c1cc(Br)ccc1[Te]c1ccc(Br)cc1C(=O)NCC,> 66.7,> 50,62.8,> 66.7,–,–,–,–,–,–
O=C(O)c1cc(O)ccc1[Te]c1ccc(O)cc1C(=O)O,> 66.7,18,6.3,> 66.7,–,–,–,–,–,–
Cc1ccc([Te]c2ccc(C)cc2C(=O)O)c(C(=O)O)c1,> 66.7,16.9,10.2,> 66.7,–,–,–,–,–,–
O=C(OCc1ccccc1)c1cc(Br)ccc1[Te]c1ccc(Br)cc1C(=O)OCc1ccccc1,> 66.7,> 50,> 66.7,> 66.7,–,–,–,–,–,–
CCOC(=O)c1cc(Br)ccc1[Te]c1ccc(Br)cc1C(=O)OCC,> 66.7,> 50,> 66.7,> 66.7,–,–,–,–,–,–
COc1ccc([Te]c2ccc(OC)cc2C(=O)O)c(C(=O)O)c1,> 66.7,10.2,7.8,> 66.7,–,–,–,–,–,–
O=C(O)c1cc(I)ccc1[Te]c1ccc(I)cc1C(=O)O,> 66.7,25.6,7.4,> 66.7,–,–,–,–,–,–
